This note sets out measurements from patent publication US8277810B2, “Antagonist anti-CD40 antibodies” (Novartis Vaccines & Diagnostics, Inc., priority 2003, dated 2012).

One assay deals with Namalwa tumors. The experiment in a line: Staged human NHL Namalwa xenograft model. The format is in vivo, T cell-deficient nude mice. The note with it: CHIR-12.12 1 mg/kg ip once a week for 4 weeks; IL-2 0.5 mg/kg sc daily for 8 days; N=10 mice/group. From the text:
Therefore, the component of these mAbs' anti-tumor activity based on blocking the tumor proliferation/survival signal is not expected to contribute to anti-tumore efficacy in these models.
To ensure consistent tumor growth, T cell-deficient nude mice were whole-body irradiated at 3 Gy to further suppress the immune system one day before tumor inoculation. Tumor cells were inoculated subcutaneously in the right flank at 5×10^6 cells per mouse. Treatment was initiated when tumor volume reached about 100-200 mm^3 (about 7 days after tumor inoculation). […] Tumor volumes were recorded twice a week. Data were analyzed using ANOVA.
Background: A xenograft is tissue or cells of one species grown in another, often human tumour cells in immunodeficient mice.

Assay [1] deals with IM-9 tumor cells. The experiment in a line: IM-9 multiple myeloma xenograft, staged subcutaneous model. The format is in vivo, SCID mice. On the procedure:
SCID mice were inoculated subcutaneously with IM-9 tumor cells (a human multiple myeloma cell line expressing both CD40 and CD20) in 50% […]™ at 5×10^6 cells per mouse. In unstaged models, treatment was initiated one day after tumor implantation. In staged models, treatment was initiated when tumor volume reached 150-200 mm^3. […] Data were analyzed using the log-rank test.

The subject of assay [2] is IM-9 tumor cells. Description: IM-9 multiple myeloma xenograft, unstaged conditional survival model. Further details: species or system SCID mice. The note with it: mouse, in vivo. On the procedure: SCID mice were inoculated subcutaneously with IM-9 tumor cells (a human multiple myeloma cell line expressing both CD40 and CD20) in 50% […]™ at 5×10^6 cells per mouse. In unstaged models, treatment was initiated one day after tumor implantation. In staged models, treatment was initiated when tumor volume reached 150-200 mm^3. Tumor-bearing mice were injected with anti-CD40 mAb intraperitoneally once a week at the indicated doses. Data were analyzed using the log-rank test.

With “IL-2: IL-2 used in the xenograft example; b966 says des-alanyl-1, serine-125 human IL-2 is used in the examples”, the “growth of Namalwa tumors, single agent” value in the assay on Namalwa tumors was “inhibited the growth of Namalwa tumors”.

`CC(C)C[C@H](NC(=O)[C@H](Cc1ccccc1)NC(=O)c1cnccn1)B(O)O` [bortezomib]: the tumor growth inhibition result is “did not inhibit tumor growth” in the assay on IM-9 tumor cells [1] (0.5 mg/kg twice a week) and 30% in the assay on IM-9 tumor cells [1] (MTD 1 mg/kg twice a week). In addition, the “outcome of treated group” value with IM-9 tumor cells [2] was “euthanized between day 18 and day 26”.
